target: T1, recombinant His-tag Y220C p53 DBD protein (Homo sapiens, UniProt P04637, Y220C); experiment: In vitro DNA binding activity assay (TR-FRET): binding of His-tag Y220C p53 DBD to biotin-labeled consensus DNA; type: biochemical; details: SC150 = concentration to increase DNA binding by […], His-tag Y220C p53 DBD, biotin-labeled consensus DNA
T1 construct: recombinant His-tag Y220C p53 DBD protein (amino acids #˜94-312)

Structure (SMILES)	Y220C SC150 (μM)
CN1CC[C@@H](Nc2cccc3c2cc(-c2noc(CNC(=O)c4csc(N5CCOCC5)c4)n2)n3CC(F)(F)F)[C@@H](F)C1 [Compound 436B, N-{[3-(4-{[(3S,4R)-3-fluoro-1-methylpiperidin-4-yl]amino}-1-(2,2,2-trifluoroethyl)-1H-indol-2-yl)-1,2,4-oxadiazol-5-yl]methyl}-5-(morpholin-4-yl)thiophene-3-carboxamide]	* (* = 0 μM ≤ SC150 < 0.1 μM)
CN1CC[C@@H](Nc2cccc3c2cc(-c2noc(CNC(=O)c4cnn(C5CCCC5)c4)n2)n3CC(F)(F)F)[C@@H](F)C1 [Compound 312B, 1-cyclopentyl-N-{[3-(4-{[(3S,4R)-3-fluoro-1-methylpiperidin-4-yl]amino}-1-(2,2,2-trifluoroethyl)-1H-indol-2-yl)-1,2,4-oxadiazol-5-yl]methyl}-1H-pyrazole-4-carboxamide]	* (* = 0 μM ≤ SC150 < 0.1 μM)
CN1CCC(Nc2cccc3c2cc(-c2noc(CNC(=O)c4cccs4)n2)n3CC(F)(F)F)CC1 [Compound 143B, N-[(3-{4-[(1-methylpiperidin-4-yl)amino]-1-(2,2,2-trifluoroethyl)-1H-indol-2-yl}-1,2,4-oxadiazol-5-yl)methyl]thiophene-2-carboxamide]	* (* = 0 μM ≤ SC150 < 0.1 μM)
CN1CC[C@@H](Nc2cccc3c2cc(-c2noc(C(=O)NCc4ccccc4)n2)n3CC(F)(F)F)[C@@H](F)C1 [Compound 544B, N-benzyl-3-(4-{[(3S,4R)-3-fluoro-1-methylpiperidin-4-yl]amino}-1-(2,2,2-trifluoroethyl)-1H-indol-2-yl)-1,2,4-oxadiazole-5-carboxamide]	** (** = 0.1 μM ≤ SC150 < 0.5 μM)
C[C@@H]1CN(C)CC[C@@H]1Nc1cccc2c1cc(-c1noc(CNC(=O)c3cnn(C(C)(C)C)c3)n1)n2CC(F)(F)F [Compound 511B, 1-tert-butyl-N-{[3-(4-{[(3R,4S)-1,3-dimethylpiperidin-4-yl]amino}-1-(2,2,2-trifluoroethyl)-1H-indol-2-yl)-1,2,4-oxadiazol-5-yl]methyl}-1H-pyrazole-4-carboxamide]	* (* = 0 μM ≤ SC150 < 0.1 μM)
CN1CCC(Nc2cccc3c2cc(-c2nc(CNC(=O)c4cccs4)no2)n3CC(F)(F)F)CC1 [Compound 139B, N-[(5-{4-[(1-methylpiperidin-4-yl)amino]-1-(2,2,2-trifluoroethyl)-1H-indol-2-yl}-1,2,4-oxadiazol-3-yl)methyl]thiophene-2-carboxamide]	** (** = 0.1 μM ≤ SC150 < 0.5 μM)
CCN1CC[C@@H](Nc2cccc3c2cc(-c2noc(CNC(=O)c4ccn(CC(=O)N(C)C)c4)n2)n3CC(F)(F)F)[C@@H](F)C1 [Compound 365B, 1-[(dimethylcarbamoyl)methyl]-N-{[3-(4-{[(3S,4R)-1-ethyl-3-fluoropiperidin-4-yl]amino}-1-(2,2,2-trifluoroethyl)-1H-indol-2-yl)-1,2,4-oxadiazol-5-yl]methyl}-1H-pyrrole-3-carboxamide]	* (* = 0 μM ≤ SC150 < 0.1 μM)
COC(=O)c1ccc(C(=O)NCc2nnc(-c3cc4c(NC5CCN(C)CC5)cccc4n3CC(F)(F)F)s2)cc1 [Compound 39B, methyl 4-{[(5-{4-[(1-methylpiperidin-4-yl)amino]-1-(2,2,2-trifluoroethyl)-1H-indol-2-yl}-1,3,4-thiadiazol-2-yl)methyl]carbamoyl}benzoate]	* (* = 0 μM ≤ SC150 < 0.1 μM)
COCC1(n2ccc(C(=O)NCc3nc(-c4cc5c(N[C@H]6CCN(C)C[C@H]6C)cccc5n4CC(F)(F)F)no3)c2)CC1 [Compound 505B, N-{[3-(4-{[(3R,4S)-1,3-dimethylpiperidin-4-yl]amino}-1-(2,2,2-trifluoroethyl)-1H-indol-2-yl)-1,2,4-oxadiazol-5-yl]methyl}-1-[1-(methoxymethyl)cyclopropyl]-1H-pyrrole-3-carboxamide]	* (* = 0 μM ≤ SC150 < 0.1 μM)
CC(C)(C)N1CCC(Nc2cccc3c2cc(-c2noc(CNC(=O)c4cnn(C(C)(C)C)c4)n2)n3CC(F)(F)F)[C@@H](F)C1 (stereo in doubt) [Compound 400B, 1-tert-butyl-N-{[3-(4-{[(3S,4R)-1-tert-butyl-3-fluoropiperidin-4-yl]amino}-1-(2,2,2-trifluoroethyl)-1H-indol-2-yl)-1,2,4-oxadiazol-5-yl]methyl}-1H-pyrazole-4-carboxamide]	* (* = 0 μM ≤ SC150 < 0.1 μM)
CN1CC[C@@H](Nc2cccc3c2cc(-c2noc(CNC(=O)c4ccc5[nH]ccc5c4)n2)n3CC(F)(F)F)[C@@H](F)C1 [Compound 258B, N-{[3-(4-{[(3S,4R)-3-fluoro-1-methylpiperidin-4-yl]amino}-1-(2,2,2-trifluoroethyl)-1H-indol-2-yl)-1,2,4-oxadiazol-5-yl]methyl}-1H-indole-5-carboxamide]	* (* = 0 μM ≤ SC150 < 0.1 μM)
CC[C@@H]1C[C@H]1C(=O)NCc1nc(-c2cc3c(N[C@@H]4CCN(C)C[C@@H]4F)cccc3n2CC(F)(F)F)no1 [Compound 269B, (1R,2R)-2-ethyl-N-{[3-(4-{[(3S,4R)-3-fluoro-1-methylpiperidin-4-yl]amino}-1-(2,2,2-trifluoroethyl)-1H-indol-2-yl)-1,2,4-oxadiazol-5-yl]methyl}cyclopropane-1-carboxamide]	* (* = 0 μM ≤ SC150 < 0.1 μM)
CN1CC[C@@H](Nc2cccc3c2cc(-c2noc(CNC(=O)c4ccn(C5(CO)CC5)c4)n2)n3CC(F)(F)F)[C@@H](F)C1 [Compound 472B, N-{[3-(4-{[(3S,4R)-3-fluoro-1-methylpiperidin-4-yl]amino}-1-(2,2,2-trifluoroethyl)-1H-indol-2-yl)-1,2,4-oxadiazol-5-yl]methyl}-1-[1-(hydroxymethyl)cyclopropyl]-1H-pyrrole-3-carboxamide]	* (* = 0 μM ≤ SC150 < 0.1 μM)
CN1CC[C@@H](Nc2cccc3c2cc(-c2noc(C(=O)NCC4CC4)n2)n3CC(F)(F)F)[C@@H](F)C1 [Compound 545B, N-(cyclopropylmethyl)-3-(4-{[(3S,4R)-3-fluoro-1-methylpiperidin-4-yl]amino}-1-(2,2,2-trifluoroethyl)-1H-indol-2-yl)-1,2,4-oxadiazole-5-carboxamide]	** (** = 0.1 μM ≤ SC150 < 0.5 μM)
CN1CC[C@@H](Nc2cccc3c2cc(-c2noc(CNC(=O)c4csc(N5CC6(COC6)C5)n4)n2)n3CC(F)(F)F)[C@@H](F)C1 [Compound 527B, N-{[3-(4-{[(3S,4R)-3-fluoro-1-methylpiperidin-4-yl]amino}-1-(2,2,2-trifluoroethyl)-1H-indol-2-yl)-1,2,4-oxadiazol-5-yl]methyl}-2-{2-oxa-6-azaspiro[3.3]heptan-6-yl}-1,3-thiazole-4-carboxamide]	* (* = 0 μM ≤ SC150 < 0.1 μM)
CN1CC[C@@H](Nc2cccc3c2cc(-c2nccs2)n3CC(F)(F)F)[C@@H](F)C1 (racemic) [Compound 93B, (+/−)-N-[(3R,4S)-3-fluoro-1-methylpiperidin-4-yl]-2-(1,3-thiazol-2-yl)-1-(2,2,2-trifluoroethyl)-1H-indol-4-amine]	*** (*** = 0.5 μM ≤ SC150 < 1 μM)
CO[C@]1(C)CC[C@H](n2ccc(C(=O)NCc3nc(-c4cc5c(N[C@@H]6CCN(C)C[C@@H]6F)cccc5n4CC(F)(F)F)no3)c2)C1 (racemic) [Compound 387B, cis-N-{[3-(4-{[(3S,4R)-3-fluoro-1-methylpiperidin-4-yl]amino}-1-(2,2,2-trifluoroethyl)-1H-indol-2-yl)-1,2,4-oxadiazol-5-yl]methyl}-1-[(1R,3S)-3-methoxy-3-methylcyclopentyl]-1H-pyrrole-3-carboxamide]	* (* = 0 μM ≤ SC150 < 0.1 μM)
CCc1cc(C(=O)NCc2nc(-c3cc4c(N[C@@H]5CCN(C)C[C@@H]5F)cccc4n3CC(F)(F)F)no2)on1 [Compound 521B, 3-ethyl-N-{[3-(4-{[(3S,4R)-3-fluoro-1-methylpiperidin-4-yl]amino}-1-(2,2,2-trifluoroethyl)-1H-indol-2-yl)-1,2,4-oxadiazol-5-yl]methyl}-1,2-oxazole-5-carboxamide]	* (* = 0 μM ≤ SC150 < 0.1 μM)
COCC(C)n1cc(C(=O)NCc2nc(-c3cc4c(N[C@@H]5CCN(C)C[C@@H]5F)cccc4n3CC(F)(F)F)no2)cn1 (stereo partly drawn) [Compound 302B, N-{[3-(4-{[(3S,4R)-3-fluoro-1-methylpiperidin-4-yl]amino}-1-(2,2,2-trifluoroethyl)-1H-indol-2-yl)-1,2,4-oxadiazol-5-yl]methyl}-1-(1-methoxypropan-2-yl)-1H-pyrazole-4-carboxamide]	* (* = 0 μM ≤ SC150 < 0.1 μM)

same assay, conditions: concentration to increase DNA binding by […], incubated at either 27° C. or 29° C. for 60 min

Structure (SMILES)	SC150 (μM)
CS(=O)(=O)c1ccc(NCc2ccc(-c3cc4c(NC5CCN(C6CCOCC6)CC5)cccc4n3CC(F)(F)F)cc2)cc1 [Compound 30A, 2-(4-{[(4-methanesulfonylphenyl)amino]methyl}phenyl)-N-[1-(oxan-4-yl)piperidin-4-yl]-1-(2,2,2-trifluoroethyl)-1H-indol-4-amine]	+ (+ = 0 μM ≤ SC150 < 2 μM)
CN1CC[C@H](Nc2cccc3c2cc(-c2ccc(CNc4ccc(S(C)(=O)=O)cc4)cc2)n3CC(F)(F)F)[C@H](F)C1 [Compound 44A, N-[(3R,4S)-3-fluoro-1-methylpiperidin-4-yl]-2-(4-{[(4-methanesulfonylphenyl)amino]methyl}phenyl)-1-(2,2,2-trifluoroethyl)-1H-indol-4-amine]	+ (+ = 0 μM ≤ SC150 < 2 μM)
FC(F)(F)Cn1c(-c2ccc(CNc3ccc(Cl)cc3)cc2)cc2c(NC3CCN(C4CCOCC4)CC3)cccc21 [Compound 32A, 2-(4-{[(4-chlorophenyl)amino]methyl}phenyl)-N-[1-(oxan-4-yl)piperidin-4-yl]-1-(2,2,2-trifluoroethyl)-1H-indol-4-amine]	++ (++ = 2 μM ≤ SC150 < 5 μM)
CS(=O)(=O)c1ccc(NCc2ccc(-c3cc4c(NC5CCS(=O)(=O)CC5)cccc4n3CC(F)(F)F)cc2)cn1 [Compound 29A, 4-{[2-(4-{[(6-methanesulfonylpyridin-3-yl)amino]methyl}phenyl)-1-(2,2,2-trifluoroethyl)-1H-indol-4-yl]amino}-1λ^6-thiane-1,1-dione]	+ (+ = 0 μM ≤ SC150 < 2 μM)

— patent publication US11807644B2 (PMV Pharmaceuticals, Inc., priority 2020, dated 2023)
